Where a SMILES comes first, the peptide text is derived from it. Bridges are numbered along the chain shown (N, C = ends).
Key:
[1] = Isothermal titration calorimetry with lipid II LUVs; type: binding; conditions: LUVs 2 mol% lipid II in DOPC, 37 °C
Method: About 200 nm large unilamellar vesicles (LUVs) were prepared from 2 mol% lipid II in DOPC by the extrusion technique. ITC measurements were conducted on a low-volume Affinity ITC (TA instruments). All measurements were conducted at 37 °C. Samples were degassed for 10 min before the ITC experiments. The cell was filled with plectasin (in 50 mM HEPES, 150 mM NaCl at pH = 7.2) and titrated with LUVs in the same buffer under constant stirring at 125 r.p.m. The data were analysed using the Nano Analyze software version 3.11.0 (TA Instruments). After baseline correction, the integrated peaks were fitted using an independent binding model. Each measurement was acquired in duplicate.

[2] = tested on: S. pneumoniae serotype 8; test: MIC assays under standard conditions; type: cell-based, Streptococcus pneumoniae; conditions: Supplementary Table 1; cation-adjusted MHB + 5% lysed horse blood, 5% CO2, 20–24 h
Method: (§1) Plectasin and analogues were serially diluted in cation-adjusted Mueller–Hinton broth (MHB) in round-bottom polypropylene 96-well plates (50 µl per well). Selected bacterial strains were grown from glycerol stocks on blood agar plates. Individual colonies were inoculated in TSB and incubated at 37 °C while shaking until OD600 reached 0.5. Bacterial suspensions were then diluted 100 times in cation-adjusted MHB and distributed (50 μl per well) over the microplate containing the diluted plectasin solutions. Plates were covered by a gas-permeable adhesive membrane and incubated at 37 °C while shaking. MICs were determined by visual inspection after 16–20 h (Staphylococcus) or 20–24 h (Streptococcus). For Streptococcus strains, the broth was additionally supplemented with 5% lysed horse blood, and the microplates were incubated under 5% CO2 atmosphere. In the assays, we used the following strains: S. simulans, S. pneumoniae serotype 8, S. pneumoniae ATCC6305 and Streptococcus pyogenes M3.

[3] = tested on: S. pyogenes M3; test: MIC assays under standard conditions; type: cell-based, Streptococcus pyogenes; conditions: Supplementary Table 1; cation-adjusted MHB + 5% lysed horse blood, 5% CO2, 20–24 h
Method: as §1

[4] = cited from earlier work
Description: Extended Data Fig. 5 Plectasin binds to bivalent cations with high affinity and its activity is enhanced by calcium ions. Representative ITC traces of the binding of bivalent cations to plectasin in solution and the effect of Mg^2+ on plectasin-lipid II binding. Heat releases and fits of Mg^2+ (A) or Ca^2+ (B) titrated to plectasin in solution. C) Calculated affinities and thermodynamic parameters experiments from (A) and (B), conducted in duplicate. Heat release traces and fits of the titration of Lipid II DOPC vesicles to plectasin without (D) and with (E) the addition of Mg^2+. F,G). Ca^2+ ...

[5] = tested on: S. simulans 22; type: cell-based, Staphylococcus simulans; conditions: Ca^2+ variable assay
Method: Cation-depleted MHB was prepared as previously described[18] and supplemented with MgCl2 (0.5 mM) and ZnSO4 (10 µM). Plectasin was serially diluted twofold over a 96-well polypropylene plate. Serial dilutions of Ca^2+ in calcium-depleted medium were subsequently added to the wells containing the plectasin dilution series, followed by addition of bacterial suspensions. MICs were determined by visual inspection after 16–20 h (Staphylococcus). The effect of reduced Ca^2+ levels on S. simulans growth in the absence of plectasin was assessed by monitoring growth at 37 °C by OD600 over 18 h (Supplementary Fig. 4).

Compound | lipid II binding by ITC (in words) [1] | Minimum inhibitory concentration, S. pneumoniae serotype 8 [2] | Minimum inhibitory concentration, S. pyogenes M3 [3] | increase in MIC if Ca^2+ is replaced by Mg^2+ [4] | improvement of antimicrobial activity with increasing Ca^2+ concentration [5]
CSCC[C@@H]1NC(=O)[C@H](CC(=O)O)NC(=O)[C@H](CC(=O)O)NC(=O)[C@H](CCC(=O)O)NC(=O)[C@H](CC(=O)O)NC(=O)[C@H](Cc2c[nH]c3ccccc23)NC(=O)[C@@H]2CCCN2C(=O)CNC(=O)[C@H](CC(N)=O)NC(=O)[C@@H](NC(=O)CNC(=O)[C@H](Cc2ccccc2)NC(=O)CN)CSSC[C@@H]2NC(=O)[C@H](Cc3ccc(O)cc3)NC(=O)CNC(=O)CNC(=O)[C@H](CCCCN)NC(=O)[C@H](Cc3ccc(O)cc3)NC(=O)CNC(=O)[C@H](CCCCN)NC(=O)[C@H](C)NC(=O)[C@H](CO)NC(=O)[C@H](CCCCN)NC(=O)[C@@H]3CSSC[C@@H](C(=O)N[C@@H](Cc4ccc(O)cc4)C(=O)O)NC(=O)[C@H](CCCCN)NC(=O)[C@H](CSSC[C@H](NC(=O)[C@H](CCC(N)=O)NC1=O)C(=O)N[C@@H](Cc1c[nH]cn1)C(=O)N[C@@H](CC(N)=O)C(=O)N[C@@H](Cc1c[nH]cn1)C(=O)N3)NC(=O)[C@H](C(C)C)NC(=O)[C@H](Cc1ccccc1)NC(=O)CNC(=O)CNC(=O)[C@H](CCCCN)NC(=O)[C@H](C)NC2=O [I22A] (H-GFGCNGPWDEDDMQCHNHCKSAKGYKGGYCAKGGFVCKCY-OH; disulfide 4-30, 15-37, 19-39 (inferred); N-terminus and C-terminus assumed) | do not bind lipid II | > 25 µg/mL | > 25 µg/mL | – | –
daptomycin [reference compound] | – | – | – | > 100 | > 60 fold

Source: paper PMC11222147, “Host defence peptide plectasin targets bacterial cell wall precursor lipid II by a calcium-sensitive supramolecular mechanism” (Nature Microbiology, 2024)
